Activity calls are given as the source filed them. The rule behind the calls is not given here.
Experiments:
[1] = test system: Bombus terrestris; experiment: Toxicity against worker Bombus terrestris (bumblebee) assessed as mortality at 30 mg a.i./l, po administered through sugar water for 11 weeks measured everyday for 3 days followed by once a week for 11 weeks; assay type: functional
[2] = test system: Bombus terrestris; experiment: Toxicity against po dosed worker Bombus terrestris (bumblebee) administered through sugar water for 11 weeks measured everyday for 3 days followed by once a week for 11 weeks; assay type: functional
[3] = test system: Bombus terrestris; experiment: Toxicity against worker Bombus terrestris (bumblebee) assessed as mortality at 30 mg a.i./l, po administered through pollen measured after 7 weeks; assay type: functional; conditions: 1176 h
[4] = test system: Bombus terrestris; experiment: Contact toxicity against worker Bombus terrestris (bumblebee) assessed as reduction in reproduction at 30 mg a.i./l applied on the dorsal thorax for 11 weeks measured once a week for 11 weeks relative to control; assay type: functional, organism-based
[5] = test system: Bombus terrestris; experiment: Contact toxicity against worker Bombus terrestris (bumblebee) assessed as mortality at 30 mg a.i./l applied on the dorsal thorax measured up to 1 week; assay type: functional, organism-based
[6] = test system: Bombus terrestris; experiment: Toxicity against worker Bombus terrestris (bumblebee) assessed as reduction in reproduction at 30 mg a.i./l, po administered through pollen for 11 weeks measured once a week for 11 weeks; assay type: functional; design: scale not given: the % may be the effect or the level left
[7] = test system: Bombus terrestris; experiment: Contact toxicity against worker Bombus terrestris (bumblebee) assessed as mortality at 30 mg a.i./l applied on the dorsal thorax for 11 weeks measured everyday for 3 days followed by once a week for 11 weeks; assay type: functional
[8] = test system: Bombus terrestris; experiment: Toxicity against worker Bombus terrestris (bumblebee) assessed as mortality at 30 mg a.i./l, po administered through pollen for 11 weeks measured everyday for 3 days followed by once a week for 11 weeks; assay type: functional

Cc1c(COC(=O)[C@@H]2[C@H](/C=C(\Cl)C(F)(F)F)C2(C)C)cccc1-c1ccccc1 (relative stereo) [BIFENTHRIN]
mortality at 30 µg/mL [1]: 50%
LC50 [2]: 0.36 mgAi/L
NOAEL [2]: 0.03 mgAi/L
mortality at 30 µg/mL [3]: 100%
Activity [4]: Active
Activity [5]: Active
Activity [6]: 50%
mortality at 30 µg/mL [7]: 100%
mortality at 30 µg/mL [8]: 90%

From ChEMBL document CHEMBL3045684, “Compatibility of traditional and novel acaricides with bumblebees (Bombus terrestris): a first laboratory assessment of toxicity and sublethal effects” (Pest Manag Sci, 2010)
